Structures can show the parent of a compound that is named as a salt. Where two headings read alike, the source gives them in different places.
Tests used:
MMP-9 = MMP-9 (Homo sapiens, UniProt P14780); assay: MMP-9 inhibition (thiopeptide or fluorescent peptide substrate); assay type: biochemical; settings: for inhibition at 1 µM: read-out: MMP-9 % inhibition, at 1 μM concentration
Description: (§1) The enzyme activity is measured by the rate of the color increase. The thiopeptide substrate is made up fresh as a 20 mM stock in 100% DMSO and the DTNB is dissolved in 100% DMSO as a 100 mM stock and stored in the dark at room temperature. Both the substrate and DTNB are diluted together to 1 mM with substrate buffer (50 mM HEPES pH 7.5, 5 mM CaCl2) before use. The stock of enzyme is diluted with buffer (50 mM HEPES, pH 7.5, 5 mM CaCl2, 0.02% Brij) to the desired final concentration.
(§2) Alternatively, a fluorescent peptide substrate is used. In this test procedure, the peptide substrate contains a fluorescent group and a quenching group. Upon cleavage of the substrate by an MMP, the fluorescence that is generated is quantitated on the fluorescence plate reader. The assay is run in HCBC assay buffer (50 mM HEPES, pH 7.0, 5 mM Ca^+2, 0.02% Brij, 0.5% Cysteine), with human recombinant MMP-1, MMP-9, or MMP-13. The substrate is dissolved in methanol and stored frozen in 1 mM aliquots. For the assay, substrate and enzymes are diluted in HCBC buffer to the desired concentrations. Compounds are added to the 96 well plate containing enzyme and the reaction is started by the addition of substrate.
(§3) For either the thiopeptide or fluorescent peptide test procedures, the slope of the line is calculated and represents the reaction rate. The linearity of the reaction rate is confirmed (r^2>0.85). The mean (x±sem) of the control rate is calculated and compared for statistical significance (p<0.05) with drug-treated rates using Dunnett's multiple comparison test.

TACE = TACE (Homo sapiens, UniProt P78536); assay: TACE inhibition (fluorescent peptidyl substrate); assay type: biochemical; settings: for inhibition at 1 µM: read-out: TACE % inhibition
Description: Using 96-well black microtiter plates, each well receives a solution composed of 10 μL TACE (final concentration 1 μg/mL), 70 μL Tris buffer, pH 7.4 containing 10% glycerol (final concentration 10 mM), and 10 μL of test compound solution in DMSO (final concentration 1 μl M, DMSO concentration <1%) and incubated for 10 minutes at room temperature.
The reaction is read (excitation 340 nm, emission 420 nm) for 10 min. and the increase in fluorescence over time is plotted as a linear line. The slope of the line is calculated and represents the reaction rate.
The linearity of the reaction rate is confirmed (r^2>0.85). The mean (x±sem) of the control rate is calculated and compared for statistical significance (p<0.05) with drug-treated rates using Dunnett's multiple comparison test.

MMP-13 = MMP-13 (Homo sapiens, UniProt P45452); assay: MMP-13 inhibition (thiopeptide or fluorescent peptide substrate); assay type: biochemical; settings: for inhibition at 1 µM: read-out: MMP-13 % inhibition, at 1 μM concentration
Description: as §1, §2, §3

MMP-1 = molecular target: T1, MMP-1 (Homo sapiens, UniProt P03956); assay: biochemical; settings: for IC50: MMP-1 IC50; for inhibition at 1 µM: read-out: MMP-1 % inhibition
T1 sequence (P03956 100-469): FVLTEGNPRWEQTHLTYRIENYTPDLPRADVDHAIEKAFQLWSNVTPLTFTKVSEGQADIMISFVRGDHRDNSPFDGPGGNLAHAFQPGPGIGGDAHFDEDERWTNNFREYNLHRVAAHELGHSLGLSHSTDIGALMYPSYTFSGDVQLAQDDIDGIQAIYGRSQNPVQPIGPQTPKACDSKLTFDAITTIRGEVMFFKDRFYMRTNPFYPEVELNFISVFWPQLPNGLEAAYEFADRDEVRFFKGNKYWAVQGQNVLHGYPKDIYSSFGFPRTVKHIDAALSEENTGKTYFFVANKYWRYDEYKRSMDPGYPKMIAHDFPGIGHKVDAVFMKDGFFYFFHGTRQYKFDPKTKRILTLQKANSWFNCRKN

Chain of TACE (P78536 215-824): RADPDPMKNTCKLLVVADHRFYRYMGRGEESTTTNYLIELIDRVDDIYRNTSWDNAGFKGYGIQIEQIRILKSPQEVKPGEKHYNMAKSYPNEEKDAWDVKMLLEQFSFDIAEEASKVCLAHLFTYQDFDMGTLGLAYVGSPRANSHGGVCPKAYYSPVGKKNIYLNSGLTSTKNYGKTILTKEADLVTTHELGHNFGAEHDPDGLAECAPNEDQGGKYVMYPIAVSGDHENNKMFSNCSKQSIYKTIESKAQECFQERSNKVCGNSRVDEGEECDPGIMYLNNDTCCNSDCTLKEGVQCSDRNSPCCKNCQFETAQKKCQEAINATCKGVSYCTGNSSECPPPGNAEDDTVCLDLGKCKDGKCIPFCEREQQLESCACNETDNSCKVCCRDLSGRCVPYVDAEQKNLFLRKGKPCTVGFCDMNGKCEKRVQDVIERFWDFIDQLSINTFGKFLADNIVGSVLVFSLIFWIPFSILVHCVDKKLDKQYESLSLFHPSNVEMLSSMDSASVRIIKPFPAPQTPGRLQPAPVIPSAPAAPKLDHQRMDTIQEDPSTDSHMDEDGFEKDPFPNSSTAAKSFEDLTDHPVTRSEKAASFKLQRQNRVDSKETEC
Chain of MMP-9 (P14780 94-707): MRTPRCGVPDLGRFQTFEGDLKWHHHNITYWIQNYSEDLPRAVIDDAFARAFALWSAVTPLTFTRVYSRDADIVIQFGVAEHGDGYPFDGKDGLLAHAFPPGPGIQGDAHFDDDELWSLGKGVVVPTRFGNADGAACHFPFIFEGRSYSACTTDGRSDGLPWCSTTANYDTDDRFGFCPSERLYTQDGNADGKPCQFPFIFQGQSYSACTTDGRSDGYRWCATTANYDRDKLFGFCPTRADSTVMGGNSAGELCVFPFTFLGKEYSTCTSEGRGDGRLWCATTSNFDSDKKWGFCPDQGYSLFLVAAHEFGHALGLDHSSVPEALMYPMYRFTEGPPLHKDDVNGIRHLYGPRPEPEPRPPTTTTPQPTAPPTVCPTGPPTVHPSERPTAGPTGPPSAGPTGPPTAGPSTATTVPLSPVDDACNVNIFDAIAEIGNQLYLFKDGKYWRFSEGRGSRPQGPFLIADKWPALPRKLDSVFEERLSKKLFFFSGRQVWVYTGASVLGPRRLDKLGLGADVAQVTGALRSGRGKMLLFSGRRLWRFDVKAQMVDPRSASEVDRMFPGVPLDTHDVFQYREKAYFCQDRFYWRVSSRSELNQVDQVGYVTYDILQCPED

Compound | IC50 (MMP-9; read-out: MMP-9 IC50) [nM] | IC50 (MMP-13) [nM] | IC50 (TACE) [nM] | IC50 (MMP-1) [nM] | other results
Cc1nn(C)c2ncc(C(=O)NO)c(N(C)S(=O)(=O)c3ccc(Oc4ccncc4)cc3)c12 [91(HC1), 4-{Methyl-[4-(4-pyridinyloxy)benzenesulfonyl]amino}-1,3-dimethyl-1H-pyrazolo[3,4-b]pyridine-5-carboxylic Acid, Hydroxyamide] | – | – | – | – | IC50 (MMP-9; MMP-9 IC50): 1.8 nM; inhibition at 1 µM (TACE): 38.7%
COc1ccc(S(=O)(=O)N(Cc2ccccc2)c2c(C(=O)NO)cnc3cc(C(F)(F)F)ccc23)cc1 [Example 11, 4-[Benzyl-(4-methoxy-benzenesulfonyl)-amino]-7-trifluoromethyl-quinoline-3-carboxylic acid hydroxyamide] | 11 | 7 | > 1000 | – | –
COc1ccc(S(=O)(=O)N(Cc2ccccc2)c2c(C(=O)NO)cnc3c(C(F)(F)F)cccc23)cc1 [Example 12, 4-[Benzyl-(4-methoxy-benzenesulfonyl)-amino]-8-trifluoromethyl-quinoline-3-carboxylic acid hydroxyamide] | 2 | 1 | 190 | 933 | –
COc1ccc(S(=O)(=O)N(Cc2ccccc2)c2c(C(=O)NO)cnc3ccc(Br)cc23)cc1 [Example 13, 4-[Benzyl-(4-methoxy-benzenesulfonyl)-amino]-6-bromo-quinoline-3-carboxylic acid hydroxyamide] | 15 | 9 | – | 82 | inhibition at 1 µM (TACE; at 1 μM concentration): 3%
COc1ccc(S(=O)(=O)N(Cc2ccccc2)c2c(C(=O)NO)cnc3cc(Br)ccc23)cc1 [Example 14, 4-[Benzyl-(4-methoxy-benzenesulfonyl)-amino]-7-bromo-quinoline-3-carboxylic acid hydroxyamide] | 8 | 6 | – | – | inhibition at 1 µM (TACE; at 1 μM concentration): 24%
COc1ccc(S(=O)(=O)N(Cc2ccccc2)c2c(C(=O)NO)cnc3ccc(C(F)(F)F)cc23)cc1 [Example 15, 4-[Benzyl-(4-methoxy-benzenesulfonyl)-amino]-6-trifluoromethyl-quinoline-3-carboxylic acid hydroxyamide] | 25 | 12 | – | – | inhibition at 1 µM (TACE; at 1 μM concentration): 7%
COc1ccc(S(=O)(=O)N(Cc2ccccc2)c2c(C(=O)NO)cnc3c(C)cccc23)cc1 [Example 18, 4-[Benzyl-(4-methoxybenzenesulfonyl)-amino]-8-methyl-quinoline-3-carboxylic acid hydroxyamide] | – | 26 | 627 | – | –
CCc1cccc2c(N(Cc3ccccc3)S(=O)(=O)c3ccc(OC)cc3)c(C(=O)NO)cnc12 [Example 19, 4-[Benzyl-(4-methoxybenzenesulfonyl)-amino]-8-ethyl-quinoline-3-carboxylic acid hydroxyamide] | 2 | 4 | 314 | – | –
COc1ccc(S(=O)(=O)N(Cc2ccccc2)c2c(C(=O)NO)cnc3c(C(C)C)cccc23)cc1 [Example 20, 4-[Benzyl-(4-methoxybenzenesulfonyl)-amino]-8-(1-methylethyl)-quinoline-3-carboxylic acid hydroxyamide] | 6 | 9 | 589 | 344 | –
C=Cc1cccc2c(N(CC)S(=O)(=O)c3ccc(OC)cc3)c(C(=O)NO)cnc12 [Example 29, 4-[Ethyl-(4-methoxy-benzenesulfonyl)-amino]-8-vinyl-quinoline-3-carboxylic acid hydroxyamide] | 5 | 4 | – | 200 | –
COc1ccc(S(=O)(=O)N(Cc2ccccc2)c2c(C(=O)NO)cnc3ccc([N+](=O)[O-])cc23)cc1 [Example 30, 4-[Benzyl-(4-methoxy-benzenesulfonyl)-amino]-6-nitro-quinoline-3-carboxylic acid hydroxyamide] | 11 | 467 | 47 | 22 | –
COc1ccc(S(=O)(=O)N(C)c2c(C(=O)NO)cnc3c(Br)cccc23)cc1 [Example 31, 4-[Methyl-(4-methoxy-benzenesulfonyl)-amino]-8-bromo-quinoline-3-carboxylic acid hydroxyamide] | – | 2 | 80 | 225 | –
CN(c1c(C(=O)NO)cnc2ccc(I)cc12)S(=O)(=O)c1ccc(Oc2ccncc2)cc1 [Example 32, 4-{Methyl-[4-(pyridin-4-yloxy)-benzenesulfonyl]-amino}-6-iodo-quinoline-3-carboxylic acid hydroxyamide] | 1 | 1 | 24 | 456 | –
CCN(c1c(C(=O)NO)cnc2ccc(C#Cc3ccccc3)cc12)S(=O)(=O)c1ccc(OC)cc1 [Example 34, 4-[Ethyl-(4-methoxy-benzenesulfonyl)-amino]-6-phenylethynyl-quinoline-3-carboxylic acid hydroxyamide] | 9 | 12 | 20 | 301 | –
COc1ccc(S(=O)(=O)N(Cc2cccnc2)c2c(C(=O)NO)cnc3c(Br)cccc23)cc1 [Example 37, 4-[(4-Methoxy-benzenesulfonyl)-pyridin-3-ylmethyl-amino]-8-bromo-quinoline-3-carboxylic acid hydroxyamide] | 2 | 1 | 124 | 65 | –
COc1ccc(S(=O)(=O)N(Cc2cccnc2)c2c(C(=O)NO)cnc3c(Cc4ccccc4)cccc23)cc1 [Example 38, 4-[(4-methoxy-benzenesulfonyl)-pyridin-3-ylmethylamino]-8-Benzyl-quinoline-3-carboxylic acid hydroxyamide] | 4 | 3 | 336 | 100 | –
COc1ccc(S(=O)(=O)N(Cc2cccnc2)c2c(C(=O)NO)cnc3c(I)cccc23)cc1 [Example 39, 4-[(4-Methoxy-benzenesulfonyl)-pyridin-3-ylmethyl-amino]-8-iodo-quinoline-3-carboxylic acid hydroxyamide] | 2 | 2 | 53 | – | –
COc1ccc(S(=O)(=O)N(Cc2cccnc2)c2c(C(=O)NO)cnc3c(-c4ccccc4)cccc23)cc1 [Example 40, 4-[(4-Methoxy-benzenesulfonyl)-pyridin-3-ylmethyl-amino]-8-phenyl-quinoline-3-carboxylic acid hydroxyamide] | 3 | 4 | 120 | 151 | –
O=C(NO)c1cnc2cc(C(F)(F)F)ccc2c1N(Cc1cccnc1)S(=O)(=O)c1ccc(-c2ccccc2)cc1 [Example 42, 4-[(Biphenyl-4-sulfonyl)-pyridin-3-ylmethyl-amino]-7-trifluoromethyl-quinoline-3-carboxylic acid hydroxyamide] | 874 | – | – | 5200 | –
CCCCCCCCS(=O)(=O)N(Cc1cccnc1)c1c(C(=O)NO)cnc2cc(C(F)(F)F)ccc12 [Example 43, 4-[(Octane-1-sulfonyl)-pyridin-3-ylmethyl-amino]-7-trifluoromethyl-quinoline-3-carboxylic acid hydroxyamide] | – | – | – | – | inhibition at 1 µM (MMP-9): 71%; inhibition at 1 µM (MMP-13): 63%; inhibition at 1 µM (TACE; at 1 μM concentration): 20%; inhibition at 1 µM (MMP-1): 43%
Cc1ccc(S(=O)(=O)N(Cc2cccnc2)c2c(C(=O)NO)cnc3cc(C(F)(F)F)ccc23)cc1 [Example 44, 4-[Pyridin-3-ylmethyl-(toluene-4-sulfonyl)-amino]-7-trifluoromethyl-quinoline-3-carboxylic acid hydroxyamide] | – | – | – | – | inhibition at 1 µM (MMP-9): 59%; inhibition at 1 µM (MMP-13): 73%; inhibition at 1 µM (TACE; at 1 μM concentration): 5%; inhibition at 1 µM (MMP-1): 65%
COc1ccc(S(=O)(=O)N(Cc2cccnc2)c2c(C(=O)NO)cnc3c2cnn3-c2ccccc2)cc1 [Example 63, 4-[(4-Methoxybenzenesulfonyl)pyridin-3-ylmethylamino]-1-phenyl-1H-pyrazolo[3,4-b]pyridine-5-carboxylic acid, hydroxyamide] | 6.8 | 23 | – | 721 | –
COc1ccc(S(=O)(=O)N(Cc2cccnc2)c2c(C(=O)NO)cnc3c2cnn3-c2ccccc2)cc1 [Example 64, 4-[(4-Methoxybenzenesulfonyl)pyridin-3-ylmethylamino]-1-phenyl-1H-pyrazolo[3,4-b]pyridine-5-carboxylic acid, hydroxyamide, hydrochloride] | 5.5 | 19 | – | 913 | –
COc1ccc(S(=O)(=O)N(Cc2cccnc2)c2c(C(=O)NO)cnc3c2c(C)nn3-c2ccccc2)cc1 [Example 67, 4-[(4-Methoxybenzenesulfonyl)pyridin-3-ylmethylamino]-1phenyl-3-methyl-1H-pyrazolo[3,4-b]pyridine-5-carboxylic acid, hydroxyamide] | – | – | – | 96 | –
COc1ccc(S(=O)(=O)N(Cc2cccnc2)c2c(C(=O)NO)cnc3snc(C)c23)cc1 [Example 86, 4-[(4-Methoxybenzenesulfonyl)pyridin-3-ylmethylamino]-3-methylisothiazolo[5,4-b]pyridine-5-carboxylic Acid, Hydroxyamide] | 6.9 | – | – | 131 | –
